Where “and” joins values, the source holds several entries; their conditions need not be identical. Equal entries are not always repeated.
What was measured:
PB1(5) [1] = biological target: T1, PB1(5) (Homo sapiens, UniProt Q86U86); experiment: DSF Tm shift assay, PB1(5) bromodomain; format: binding; details: for PB1(5) Tm (Supplementary Table 2): average of three replicates and standard deviation; for ΔTm at 10 µM: 10 μM inhibitor, average of three replicates
T1 construct: the fifth bromodomain of PB1 (PB1(5)); made in house

BRPF1B = biological target: T2, BRPF1B (Homo sapiens, UniProt P55201); experiment: DSF Tm shift assay, BRPF1B; format: binding; details: single measurement
T2 construct: Bromodomain DSF Tm assays were performed; made in house
T2 sequence (P55201 628-732 limits assumed): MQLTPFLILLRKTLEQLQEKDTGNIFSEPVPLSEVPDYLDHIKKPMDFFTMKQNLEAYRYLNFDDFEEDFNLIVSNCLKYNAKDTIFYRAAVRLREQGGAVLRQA
Procedure: (§1) Protein Expression and Purification.
(§2) Proteins were cloned, expressed, and purified as previously described.1 […]
(§3) Bromodomain DSF Tm assays were performed using a Mx3005p real-time PCR machine (Agilent) and low profile 96-well PCR plates (AB-0700, Life Technologies). Protein was buffered in 10 mM HEPES, pH 7.5, 500 mM NaCl and assayed at a concentration of 2 µM with 10 µM inhibitor concentration and 1:1000 SyproOrange (Invitrogen). Excitation and emission filters were set to 465 and 590 nm respectively. The temperature was raised by 3 °C per 1 min from 25–95 °C, and fluorescence readers were taken at each interval. Data analysis was carried out as described previously.2
(§4) AlphaScreen Displacement Assay.
(§5) AlphaScreen assays were based on a reported protocol, with minor variations.3 In place of a biotinylated peptide, a biotinylated ligand was used at 25 nM final concentration.
(§6) Isothermal Calorimetry Experiments.
(§7) Calorimetric experiments were performed on a VP-ITC micro-calorimeter (MicroCalTM, LLC Northampton, MA). Protein solutions were buffer exchanged by dialysis into buffer 20 mM Hepes pH 7.5, 150 mM NaCl, and 0.5 mM TCEP. All measurements were carried out at 293.15 K while stirring at 286 rpm. The micro syringe was loaded with protein solutions ranging from […]

BRD9A = biological target: T3, BRD9A (Homo sapiens, UniProt Q9H8M2); experiment: DSF Tm shift assay, BRD9A; format: binding; details: single measurement
T3 construct: Bromodomain DSF Tm assays were performed; made in house
T3 sequence (Q9H8M2 136-240 limits assumed): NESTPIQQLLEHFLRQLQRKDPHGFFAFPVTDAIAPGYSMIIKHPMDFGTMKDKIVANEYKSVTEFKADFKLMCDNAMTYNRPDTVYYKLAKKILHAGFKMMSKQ
Procedure: as §1, §2, §3, §4, §5, §6, §7

CECR2A = biological target: T4, CECR2A (Homo sapiens, UniProt Q9BXF3); experiment: DSF Tm shift assay, CECR2A; format: binding; details: single measurement
T4 construct: Bromodomain DSF Tm assays were performed; made in house
Procedure: as §1, §2, §3, §4, §5, §6, §7

PB1(5) [2] = biological target: T1, PB1(5); experiment: Isothermal calorimetry (ITC), PB1(5) bromodomain; format: binding; details: for K × 10^6 (M^–1): 293.15 K
SMARCA4 = SMARCA4 (Homo sapiens, UniProt P51532); experiment: Isothermal calorimetry (ITC), SMARCA4; format: binding
CREBBP = biological target: T5, CREBBP (Homo sapiens, UniProt Q92793); experiment: DSF Tm shift assay, CREBBP; format: binding; details: 10 μM, single measurement
T5 construct: representative bromodomains (PCAF, BRD4(1), CREBBP, TRIM33B) from other subfamilies using DSF; made in house
Procedure: as §1, §2, §3, §4, §5, §6, §7

Solubility (qualitative) = format: physicochemical; details: chlorinated derivatives
BRD4(1) = biological target: T6, BRD4(1) (Homo sapiens, UniProt O60885); experiment: DSF Tm shift assay, BRD4(1); format: binding; details: 10 μM, single measurement
T6 construct: representative bromodomains (PCAF, BRD4(1), CREBBP, TRIM33B) from other subfamilies using DSF; made in house
Procedure: as §1, §2, §3, §4, §5, §6, §7

TRIM33B = biological target: T7, TRIM33B (Homo sapiens, UniProt Q9UPN9); experiment: DSF Tm shift assay, TRIM33B; format: binding; details: 10 μM, single measurement
T7 construct: representative bromodomains (PCAF, BRD4(1), CREBBP, TRIM33B) from other subfamilies using DSF; made in house
T7 sequence (Q9UPN9 957-1063 isoform Q9UPN9-2 limits assumed): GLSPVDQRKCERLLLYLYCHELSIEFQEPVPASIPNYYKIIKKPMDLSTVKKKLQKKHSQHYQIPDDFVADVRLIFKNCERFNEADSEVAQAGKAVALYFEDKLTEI
Procedure: as §1, §2, §3, §4, §5, §6, §7

PCAF = biological target: T8, PCAF (Homo sapiens, UniProt Q92831); experiment: DSF Tm shift assay, PCAF; format: binding; details: 10 μM, single measurement
T8 construct: representative bromodomains (PCAF, BRD4(1), CREBBP, TRIM33B) from other subfamilies using DSF; made in house
T8 sequence (Q92831 723-827 limits assumed): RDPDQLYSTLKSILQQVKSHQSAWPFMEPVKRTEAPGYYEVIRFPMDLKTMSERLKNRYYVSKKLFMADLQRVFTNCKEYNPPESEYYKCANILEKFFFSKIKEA
Procedure: as §1, §2, §3, §4, §5, §6, §7

[3] = Aqueous stability by 1H NMR in D2O time course; format: physicochemical
Excerpt: Compounds were synthesized by the routes shown in Scheme 1. Amidation of 2-aminobenzamide 2 with 4-chlorobutanoyl chloride[29] gave amide 3, which could be cyclized to the 2,3-dihydropyrrolo[1,2-a]quinazolin-5(1H)-one core 4 using potassium tert-butoxide. The isomer was confirmed on the basis of NOE correlations and subsequent crystallography. The weak nucleophilicity of the core was then exploited by reacting compound 4 with substituted N,N-dialkylformamides using Vilsmeier–Haack conditions, giving analogues incorporating nitrogen-based aliphatic side chains solely as the E regioisomer. This chemistry was unsuitable for piperazine-based formamides. For these side chains, analogues 12–15 were synthesized as single regioisomers by displacement of the dimethylamino group in 5 using cyclic secondary amines and DMAP catalysis. Due to the potential for hydrolysis of the enamine-like moiety, the aqueous stability of 5 was assessed by ^1H NMR in a D2O time course experiment and was stable for >24 h. […] Their binding to PB1(5) was assessed by the operationally simple DSF assay (Table 1). […] Six-membered aliphatic rings (10–14) were better tolerated than analogues containing six-membered aromatic side chains (see Supporting Information), likely due to their greater flexibility. However, expansion to a seven-membered ring reduced activity.

Sequence of SMARCA4 (P51532 1453-1564 limits assumed): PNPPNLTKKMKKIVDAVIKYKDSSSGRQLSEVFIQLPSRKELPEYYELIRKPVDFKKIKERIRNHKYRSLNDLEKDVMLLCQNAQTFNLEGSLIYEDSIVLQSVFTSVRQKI
T4 sequence (Q9BXF3 434-538 limits assumed): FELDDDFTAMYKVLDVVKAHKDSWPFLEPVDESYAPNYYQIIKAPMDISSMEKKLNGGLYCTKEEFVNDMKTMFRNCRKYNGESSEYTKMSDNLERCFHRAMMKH
T1 sequence (Q86U86 653-774): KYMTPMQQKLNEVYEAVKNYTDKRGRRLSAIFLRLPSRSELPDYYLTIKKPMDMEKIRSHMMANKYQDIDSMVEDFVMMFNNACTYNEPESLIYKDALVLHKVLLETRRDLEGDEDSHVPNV
T5 sequence (Q92793 1085-1192 limits assumed): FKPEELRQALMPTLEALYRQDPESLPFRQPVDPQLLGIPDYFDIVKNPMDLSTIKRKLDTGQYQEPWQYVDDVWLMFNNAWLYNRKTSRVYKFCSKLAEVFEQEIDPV

SMILES	BRPF1B Tm (BRPF1B) [°C]	BRD9A Tm (BRD9A) [°C]	CECR2A Tm (CECR2A) [°C]	TΔS (PB1(5) [2])	ΔG (PB1(5) [2]) [kcal/mol]	K × 10^6 (M^–1) (PB1(5) [2])	other results
CC(C)(C)OC(=O)N1CCN(/C=C2\CCn3c2nc(=O)c2ccccc23)CC1 [Compound 14]	0.2	0.7	0.1				PB1(5) Tm (Supplementary Table 2) (PB1(5) [1]): 4.7 ± 0.6 °C
CN1CCN(/C=C2\CCn3c2nc(=O)c2ccccc23)CC1 [Compound 12]	0.2	0.5	0.3				PB1(5) Tm (Supplementary Table 2) (PB1(5) [1]): 5.8 ± 0.1 °C
O=c1nc2n(c3ccccc13)CC/C2=C\N1CCCC1 [Compound 9, (E)-3-(Pyrrolidin-1-ylmethylene)-2,3-dihydropyrrolo[1,2-a]quinazolin-5(1H)-one]	0.0	1.0	0.2	4.7 kcal/mol and 4.717 kcal/mol	-7.577	0.44 × 10^6 M^–1	PB1(5) Tm (Supplementary Table 2) (PB1(5) [1]): 4.3 ± 0.4 °C
CCC(/C=C1\CCn2c1nc(=O)c1c(Cl)cccc12)CC [Compound 28]				2.362 kcal/mol and 2.3 kcal/mol	-9.110		K×10^6 (M-1) (SMARCA4): 0.49 ×10^6 M-1; TΔS (SMARCA4): 6.446 kcal/mol; ΔG (SMARCA4): -7.620 kcal/mol; ΔH (SMARCA4): -1.174 kcal/mol
O=c1nc2n(c3ccccc13)CC/C2=C\N1CCOCC1 [Compound 11]	0.0	0.8	0.1				
O=c1nc2n(c3ccccc13)CC/C2=C\N1CCCCC1 [Compound 10, (E)-3-(Piperidin-1-ylmethylene)-2,3-dihydropyrrolo[1,2-a]quinazolin-5(1H)-one]	0.0	0.2	0.1	5.3 kcal/mol and 5.274 kcal/mol	-7.926	0.80 × 10^6 M^–1	
O=c1nc2n(c3cccc(Cl)c13)CC/C2=C\N1CCCCC1 [Compound 24]				4.043 kcal/mol and 4.0 kcal/mol	-9.243	7.86 × 10^6 M^–1	CREBBP Tm (CREBBP): 0.0 °C; DMSO and aqueous solubility (Solubility (qualitative)): greatly improved; BRD4(1) Tm (BRD4(1)): 1.0 °C; TRIM33B Tm (TRIM33B): -0.1 °C
O=c1nc2n(c3cccc(Cl)c13)CCC2 [Compound 18c, 6-chloro-2,3-dihydropyrrolo[1,2-a]quinazolin-5(1H)-one]							ΔTm at 10 µM (PB1(5) [1]): 2.6 ± 0.3 °C
CN(C)/C=C1\CCn2c1nc(=O)c1c(Cl)cccc12 [Compound 18]				3.018 kcal/mol and 3.0 kcal/mol	-9.195	7.29 × 10^6 M^–1	PCAF Tm (PCAF): 0.2 °C; CREBBP Tm (CREBBP): 0.0 °C; BRD4(1) Tm (BRD4(1)): 0.3 °C; TRIM33B Tm (TRIM33B): 0.2 °C
O=c1nc2n(c3cccc(Br)c13)CCC2 [Compound 19c]							ΔTm at 10 µM (PB1(5) [1]): 3.1 ± 0.3 °C
CN(C)/C=C1\CCn2c1nc(=O)c1ccccc12 [Compound 5, (E)-3-((Dimethylamino)methylene)-2,3-dihydropyrrolo[1,2-a]quinazolin-5(1H)-one]	0.1	0.2	0.1				aqueous stability [3]: > 24 h
Cc1cccc2c1c(=O)nc1n2CCC1 [Compound 16c]							ΔTm at 10 µM (PB1(5) [1]): 0 °C
